This passage reports IC50, CC50 and selectivity ratio results from ChEMBL document CHEMBL4371055, “Bioactive polyoxygenated cembranoids from a novel Hainan chemotype of the soft coral Sinularia flexibilis” (Bioorg Med Chem Lett, 2019).

One data set relates to RAW264.7. The experiment in a line: Antiinflammatory activity in mouse RAW264.7 cells assessed as inhibition of LPS-induced TNFalpha production pretreated for 30 mins followed by LPS stimulation for 24 hrs by ELISA. Type of data set: functional, cell-based.
The nature of data set [1]: Cytotoxicity against mouse RAW264.7 cells assessed as reduction in cell viability after 24 hrs by CCK8 assay. Type of data set: cell-based.
Data set [2] is described as follows: Selectivity index, ratio of CC50 for mouse RAW264.7 cells to IC50 for inhibition of LPS-induced TNFalpha production in mouse RAW264.7 cells. Type of data set: toxicity, cell-based. The settings on record: read-out: Ratio CC50/IC50.
The subject of the next data set is A549. The experiment in a line: Cytotoxicity against human A549 cells after 48 hrs by sulforhodamine B assay. Type of data set: functional, cell-based. The settings on record: A549, 48 h.
A further data set deals with HT-29. The experiment in a line: Cytotoxicity against human HT-29 cells after 48 hrs by sulforhodamine B assay. The settings on record: HT-29, 48 h. Type of data set: functional, cell-based. In general terms: The SRB assay estimates cell density from bound dye.
Another data set concerns SNU-398. The experiment in a line: Cytotoxicity against human SNU398 cells after 48 hrs by sulforhodamine B assay. Type of data set: functional, cell-based. To be noted: SNU-398, 48 h.
Another data set deals with CAPAN-1. The experiment in a line: Cytotoxicity against human Capan1 cells after 48 hrs by sulforhodamine B assay. Type of data set: functional, cell-based. The settings on record: CAPAN-1, 48 h.

The structures appear in SMILES notation.

`C=C(C(=O)OCCCC)[C@H]1CC[C@](C)(O)C(=O)CC/C(C)=C/CC[C@]2(C)O[C@@H]2C1`: the IC50 (in general, the midpoint of a concentration-inhibition curve) with RAW264.7 was 38.9 µM; with A549, > 50 µM; in the data set on HT-29, > 50 µM; with SNU-398, > 50 µM; in the data set on CAPAN-1, > 50 µM. In addition, the cytotoxic concentration (CC50) – broadly, the concentration that lowers cell viability or growth by half – at 24 h in data set [1] was > 50 µM. Besides, the selectivity ratio in data set [2] is > 1.3.

In the case of `C=C(C(=O)OC)[C@H]1CC[C@@]2(C)O[C@@H]2CC/C(C)=C/CC[C@@]2(C)O[C@H]2C1`, the IC50 is 4.2 µM in the data set with RAW264.7; > 50 µM with A549; > 50 µM in the data set on HT-29; > 50 µM in the data set with SNU-398; > 50 µM in the data set on CAPAN-1. Also, the CC50 at 24 h in data set [1] was > 50 µM. Also, the selectivity ratio in data set [2] was > 11.9.

With `C=C(C(=O)OCCCC)[C@@H]1CC[C@@](C)(O)[C@H](O)CC/C(C)=C/CC[C@]2(C)O[C@H]2C1`, the 50% inhibitory concentration (IC50) with RAW264.7, in the data set on A549, in the data set with HT-29, with SNU-398 and in the data set with CAPAN-1 was > 50 µM throughout. Moreover, the CC50 at 24 h in data set [1] was > 50 µM.

Consider `C=C1C(=O)O[C@]2(C)CC[C@@H]1C[C@@H]1O[C@@]1(C)CC/C=C(\C)CC[C@H]2OC(C)=O`, for which the IC50 with RAW264.7 is 2.7 µM; in the data set on A549 it was > 50 µM; in the data set with HT-29, 32.6 µM; in the data set with SNU-398 it was 24.9 µM; with CAPAN-1, 28.7 µM. Further, in data set [1], the cytotoxic concentration (CC50) at 24 h was > 50 µM. In data set [2], the selectivity ratio was > 18.5.

Consider `C=C(C(=O)OCCCC)[C@@H]1CC[C@@](C)(O)[C@@H]2CC[C@](C)(O2)[C@@H](OC(C)=O)CC[C@]2(C)O[C@H]2C1`, for which the IC50 was 20.7 µM in the data set with RAW264.7; > 50 µM in the data set with A549; > 50 µM with HT-29; > 50 µM in the data set with SNU-398; > 50 µM in the data set on CAPAN-1. The CC50 at 24 h in data set [1] is > 50 µM. In addition, the selectivity ratio in data set [2] is > 2.4.

Take `C=C(C(=O)OC)[C@H]1CC[C@](C)(O)C(=O)CC/C(C)=C/CC[C@]2(C)O[C@@H]2C1`: the IC50 was 13.3 µM with RAW264.7; > 50 µM in the data set on A549; > 50 µM with HT-29; > 50 µM in the data set with SNU-398; > 50 µM in the data set with CAPAN-1. Besides, the 50% cytotoxic concentration (CC50) at 24 h in data set [1] is > 50 µM. Besides, the selectivity ratio in data set [2] is > 3.8.

In the case of `C=C(C)[C@@H]1CC[C@]2(C)O[C@H]2CC/C(C)=C/CC[C@]2(C)O[C@H]2C1`, the concentration for half-maximal inhibition (IC50) in the data set on RAW264.7, in the data set with A549, in the data set on HT-29, in the data set on SNU-398 and with CAPAN-1 was > 50 µM throughout. The half-maximal cytotoxic concentration (CC50) at 24 h in data set [1] is > 50 µM.

Turning to `C=C1C(=O)O[C@]2(C)CC[C@@H]1C[C@@H]1O[C@@]1(C)CC/C=C(\C)CCC2=O`, the IC50 with RAW264.7 was > 50 µM; in the data set with A549 it was 27.4 µM; in the data set with HT-29, 22.7 µM; with SNU-398, 8.9 µM; in the data set on CAPAN-1, 9.4 µM. Moreover, the 50% cytotoxic concentration (CC50) at 24 h in data set [1] is > 50 µM.

For `C[C@@H]1C[C@H]2[C@@H]3CCC4=CC(=O)C=C[C@]4(C)[C@@]3(F)[C@@H](O)C[C@]2(C)[C@@]1(O)C(=O)CO` [DEXAMETHASONE], the IC50 in the data set with RAW264.7 turned out to be 8.7 µM. Besides, in data set [1], the CC50 at 24 h is > 50 µM. The selectivity ratio in data set [2] was > 5.7.

As to `CC(=O)O[C@H]1C(=O)[C@@]2(C)[C@H]([C@H](OC(=O)c3ccccc3)[C@]3(O)C[C@H](OC(=O)[C@H](O)[C@@H](NC(=O)c4ccccc4)c4ccccc4)C(C)=C1C3(C)C)[C@]1(OC(C)=O)CO[C@@H]1C[C@@H]2O` [PACLITAXEL], the half-maximal inhibitory concentration (IC50) is 0.0006 µM in the data set with SNU-398 and 0.0033 µM in the data set on CAPAN-1.

In the case of `C=C1C(=O)O[C@]2(C)CC[C@@H]1C[C@@H]1O[C@@]1(C)CC/C=C(\C)CC[C@@H]2O` [SINULARIOLIDE], the IC50 with RAW264.7 is 4.7 µM; in the data set with A549, > 50 µM; with HT-29 it was 33.6 µM; with SNU-398, 24.7 µM; in the data set with CAPAN-1 it was 26.1 µM. In data set [1], the CC50 at 24 h was > 50 µM. In addition, the selectivity ratio in data set [2] is > 10.6.
